The source made the active and inactive calls. The rule behind the calls is not given here.
What was measured:
[1] = Metabolic stability in human liver microsomes; assay type: ADME, Microsome
[2] = biological target: NACHT, LRR and PYD domains-containing protein 3 (Homo sapiens, UniProt Q96P20); assay: Inhibition of NLRP3 inflammasome in PMA-differentiated human THP-1 cells assessed as inhibition of LPS/nigericin-induced IL-1 beta secretion pretreated with LPS for 3 hrs followed by incubation with compound for 40 mins and later stimulated with nigericin for 35 mins by ELISA; assay type: cell-based
Sequence of NACHT, LRR and PYD domains-containing protein 3 (Q96P20 whole entry, the tested form may be a part): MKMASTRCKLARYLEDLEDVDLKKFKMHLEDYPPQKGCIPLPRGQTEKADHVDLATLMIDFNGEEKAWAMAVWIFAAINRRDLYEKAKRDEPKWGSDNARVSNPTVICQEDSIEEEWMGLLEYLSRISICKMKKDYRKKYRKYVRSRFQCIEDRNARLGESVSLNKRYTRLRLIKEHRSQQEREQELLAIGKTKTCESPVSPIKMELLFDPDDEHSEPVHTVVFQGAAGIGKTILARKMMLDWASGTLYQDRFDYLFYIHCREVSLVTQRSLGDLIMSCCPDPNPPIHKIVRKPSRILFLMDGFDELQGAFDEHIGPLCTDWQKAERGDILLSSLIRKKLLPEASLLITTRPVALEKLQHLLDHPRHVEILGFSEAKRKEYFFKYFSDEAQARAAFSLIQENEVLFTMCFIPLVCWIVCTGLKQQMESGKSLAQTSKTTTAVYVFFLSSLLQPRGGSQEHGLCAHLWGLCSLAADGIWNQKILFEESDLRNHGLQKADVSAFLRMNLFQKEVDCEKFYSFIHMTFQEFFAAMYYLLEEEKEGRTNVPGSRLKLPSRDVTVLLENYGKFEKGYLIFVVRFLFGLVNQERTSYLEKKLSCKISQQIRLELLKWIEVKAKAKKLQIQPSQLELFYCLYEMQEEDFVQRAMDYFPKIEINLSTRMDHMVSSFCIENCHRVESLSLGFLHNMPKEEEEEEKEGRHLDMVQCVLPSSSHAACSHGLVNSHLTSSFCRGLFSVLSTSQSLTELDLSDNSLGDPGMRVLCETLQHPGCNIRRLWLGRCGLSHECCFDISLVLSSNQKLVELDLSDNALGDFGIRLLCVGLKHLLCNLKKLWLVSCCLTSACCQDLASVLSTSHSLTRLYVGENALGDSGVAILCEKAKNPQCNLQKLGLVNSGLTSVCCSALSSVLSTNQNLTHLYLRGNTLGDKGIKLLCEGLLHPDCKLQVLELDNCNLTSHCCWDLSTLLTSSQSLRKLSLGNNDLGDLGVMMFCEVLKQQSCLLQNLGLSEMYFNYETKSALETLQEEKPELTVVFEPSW

[3] = system: Mus musculus; assay: Antiinflammatory activity against DSS-induced ulcerative colitis C57BL/6 mouse model assessed as decrease in disease activity index at 30 mg/kg, ip fed with DSS for 6 days followed by administration with compound for 5 days; assay type: functional, organism-based; conditions: time 5.0 day
[4] = system: Mus musculus; assay: Antiinflammatory activity against DSS-induced ulcerative colitis C57BL/6 mouse model assessed as decrease in colon length shortening at 30 mg/kg, ip fed with DSS for 6 days followed by administration with compound for 5 days and measured on day 11; assay type: functional, organism-based; conditions: time 5.0 day
[5] = system: THP-1; assay: Effect on pro-IL-1beta protein expression in PMA-differentiated human THP-1 cells at 0.5 uM pretreated with compound for 40 mins followed by LPS challenge for 3 hrs by western blot analysis; assay type: functional, cell-based; conditions: time 220.0 min
[6] = system: THP-1; assay: Effect on NLRP3 protein expression in PMA-differentiated human THP-1 cells at 0.5 uM pretreated with compound for 40 mins followed by LPS challenge for 3 hrs by western blot analysis; assay type: functional, cell-based; conditions: time 220.0 min

Compound	IC50 [2] [µM]	also measured
CC(C)c1nn(Cc2nnc(-c3ccc(F)nc3F)o2)c(=O)c2cc3sc(Cl)cc3n12		half-life [1]: 8.86 min
O=C(CN1CCn2c(cc3sccc32)C1=O)NC1CCOCC1	> 10	
Cc1cccc(-c2nnc(Cn3nc(C(C)C)n4c(cc5sc(Cl)cc54)c3=O)o2)c1	> 10	
CC(C)c1nn(Cc2nnc(C3CCOCC3)o2)c(=O)c2cc3sccc3n12	> 10	
CC(C)c1nn(CC(=O)NC2CCOCC2)c(=O)c2cc3sc(Cl)cc3n12		half-life [1]: 18.7 min; Activity [3]: Active; Activity [4]: Active
CC(C)c1nn([C@H](C)c2nnc(-c3ccc(C(F)(F)F)nc3Cl)o2)c(=O)c2cc3sc(Cl)cc3n12	> 10	half-life [1]: 59.2 min
CC(C)c1nn(Cc2nnc(-c3cccc(C#N)c3)o2)c(=O)c2cc3sc(Cl)cc3n12	0.38	
CC(C)c1nn(Cc2nnc(-c3cnccn3)o2)c(=O)c2cc3sc(Cl)cc3n12	2.24	
CC(C)c1nn(Cc2nnc(-c3ccncn3)o2)c(=O)c2cc3sc(Cl)cc3n12	1.24	
[2H]C([2H])(c1nnc(-c2ccc(C(F)(F)F)nc2Cl)o1)n1nc(C(C)C)n2c(cc3sc(Cl)cc32)c1=O		half-life [1]: 25.1 min
CC(C)(O)c1coc(S(=O)(=O)NC(=O)Nc2c3c(cc4c2CCC4)CCC3)c1		Activity [5]: inactive; Activity [6]: inactive
CC(C)c1nn(CC(=O)NC2CCOCC2)c(=O)c2cc3ccccc3n12	> 10	
CC(C)c1nn(CC(=O)NC2CCOCC2)c(=O)c2cccn12	> 10	
CC(C)c1nn(Cc2nnc(C3CCCCC3)o2)c(=O)c2cc3sc(Cl)cc3n12	1.9	
CC(C)c1nn(Cc2nnc(-c3cc(F)cnc3Cl)o2)c(=O)c2cc3sc(Cl)cc3n12		half-life [1]: 7.66 min
CC(C)c1nn(Cc2nnc(-c3cccnc3)o2)c(=O)c2cc3sc(Cl)cc3n12	1.89	
CC(C)c1nn(CC(=O)NC2CCOCC2)c(=O)c2cc(NC3COC3)cn12	> 10	
CC(C)c1nn(CC(=O)NC2CCOCC2)c(=O)c2ccc(-c3ccc(Cl)s3)n12	> 10	
CC(C)c1nn(Cc2nnc(-c3cc(C(F)(F)F)cnc3Cl)o2)c(=O)c2cc3sc(Cl)cc3n12	1.77	
CC(C)c1nn(CC(=O)NC2CCOCC2)c(=O)c2ccc(-c3ccsc3)n12	> 10	
CC(C)c1nn(CC(=O)NC2CCOCC2)c(=O)c2cc(Nc3ccccc3)cn12	> 10	
CC(C)c1nn(Cc2nnc(-c3cccnc3)[nH]2)c(=O)c2cc3sc(Cl)cc3n12	> 10	
CC(C)c1nn([C@@H](C)c2nnc(-c3ccc(C(F)(F)F)nc3Cl)o2)c(=O)c2cc3sc(Cl)cc3n12	> 10	
Cc1ccc(-c2nnc(Cn3nc(C(C)C)n4c(cc5sc(Cl)cc54)c3=O)o2)c(Cl)n1		half-life [1]: 15.2 min
COc1cccc(-c2nnc(Cn3nc(C(C)C)n4c(cc5sc(Cl)cc54)c3=O)o2)c1	> 10	
CC(C)c1nn(Cc2nnc(C3CCOCC3)o2)c(=O)c2cc3sc(Cl)cc3n12	2.41	
O=C(CNC(=O)c1cc2sccc2[nH]1)NC1CCOCC1	> 10	
CC(C)c1nn(CC(=O)NC2CCOCC2)c(=O)c2cc3cc(Cl)ccc3n12	> 10	

Source: ChEMBL document CHEMBL5365532, “Discovery of Triazinone Derivatives as Novel, Specific, and Direct NLRP3 Inflammasome Inhibitors for the Treatment of DSS-Induced Ulcerative Colitis” (J Med Chem, 2023)
